Laboratory results as given in US20250073217A1 (priority 2022, published 2025).
Read-outs that look alike come from different tables or passages of the source.

Key:
μ (MOP) (h) [1] = target: T1, μ (MOP) (h) (Homo sapiens, UniProt P35372); type: cell-based
δ2 (DOP) (h) = δ2 (DOP) (h) (Homo sapiens, UniProt P41143); type: binding
α2B(h) = target: T2, α2B(h) (Homo sapiens, UniProt P18089); type: binding
T2 sequence (P18089 1-450): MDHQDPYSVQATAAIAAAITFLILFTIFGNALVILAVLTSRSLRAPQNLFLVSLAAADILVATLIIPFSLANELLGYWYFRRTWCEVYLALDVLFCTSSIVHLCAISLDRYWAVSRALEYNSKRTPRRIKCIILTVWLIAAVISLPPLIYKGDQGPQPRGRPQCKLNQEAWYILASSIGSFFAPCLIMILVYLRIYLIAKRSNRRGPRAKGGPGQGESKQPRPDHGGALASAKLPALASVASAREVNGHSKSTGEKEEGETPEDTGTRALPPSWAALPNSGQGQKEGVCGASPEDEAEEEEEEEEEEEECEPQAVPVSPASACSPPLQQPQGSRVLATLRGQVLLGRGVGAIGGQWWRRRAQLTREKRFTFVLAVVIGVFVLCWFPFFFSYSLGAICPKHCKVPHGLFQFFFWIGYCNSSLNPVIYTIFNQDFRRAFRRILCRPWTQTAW

κ (KOP) = κ (KOP) (Rattus norvegicus, UniProt P34975); type: binding
μ (MOP) (h) [2] = target: T1, μ (MOP) (h); type: binding
[3] = test system: L-DOPA induced dyskinesias; assay: L-DOPA induced dyskinesias, Rodent in vivo model
[4] = Brain Tissue Binding, equilibrium dialysis, rat; settings: brain homogenate
CYP2C9 = CYP2C9 (Homo sapiens, UniProt P11712); assay: CYP2C9 Inhibition, human liver microsomes, tolbutamide; settings: 0.1 μM-25 μM
CYP1A2 [5] = settings: human hepatocytes, 72 hr, 0.4-100 μM, any concentration tested
CYP1A2 [6] = target: CYP1A2 (Homo sapiens, UniProt P05177); settings: 0.1 μM-25 μM, human liver microsomes
CYP2D6 = target: T3, CYP2D6 (Homo sapiens, UniProt P10635); assay: Time Dependent Inhibition of CYP2D6 (Dextromethorphan; IC50 Shift); type: in vitro ADME; settings: for CYP2D6 inhibition: at 25 μM
T3 construct: from tissue
Procedure: The probe substrate dextromethorphan (5 μM) and NADPH (1 mM) were then added (final DMSO concentration 0.3%) and the samples incubated for 5 min at 37° C. The selective time dependent CYP2D6 inhibitor, paroxetine, was screened alongside the test compounds as a positive control. The reactions were terminated by the addition of an aliquot of the incubation into methanol. The samples were centrifuged at 2500 rpm for 30 min at 4° C., and aliquots of the supernatant are diluted with formic acid in deionised water (final concentration 0.1%) containing internal standard prior to analysis of dextrorphan by LC-MS/MS.

hERG potassium channel = hERG potassium channel (Homo sapiens, UniProt Q12809); assay: hERG Channel Inhibition (IC50 Determination), IonWorks automated patch clamp, CHO cells
CYP2B6 [7] = target: CYP2B6 (Homo sapiens, UniProt P20813); settings: 0.1 μM-25 μM, human liver microsomes
CD-1 mice [8] = assay: Mouse Tail Flick Test; type: in vivo; settings: compound 1 10 mg/kg IP, 10 minutes later Morphine 10 mg/kg SC, versus Morphine alone; FIGS. 2A-2C
CYP2B6 [9] = settings: human hepatocytes, 72 hr, at 100 μM
animal models = assay: Toxicity in animal models; type: in vivo; settings: many animal models, even at high concentrations
Excerpt: Toxicity: The Compound 1 was studied for its toxicity in many animal models.

Caco-2 cells = assay: Caco-2 Permeability (A-B or Bi-directional)
[10] = test system: L-DOPA induced dyskinesias; assay: L-DOPA induced dyskinesias, Primate in vivo model
plasma proteins = assay: Binding to plasma proteins; type: in vitro ADME
[11] = Brain Tissue Binding, equilibrium dialysis, mouse; settings: fraction unbound could not be determined
[12] = Bioavailability and Stability; type: in vitro ADME
Excerpt: Bioavailability and Stability: Compounds of the invention were studied in detail, using several parameters to evaluate bioavailability and stability.

CD-1 mice [13] = assay: Mice conditioned place preference (CPP) chamber test; type: in vivo; settings: Compound 1 10 mg/kg IP, 10 minutes later Morphine 10 mg/kg SC, versus Morphine alone; FIG. 1
CYP3A4 [14] = settings: human hepatocytes, 72 hr, 0.4-100 μM, any concentration tested
CYP3A4 [15] = target: T4, CYP3A4 (Homo sapiens, UniProt P08684); settings: 0.1 μM-25 μM, human liver microsomes, substrate midazolam
CYP2C8 = CYP2C8 (Homo sapiens, UniProt P10632); assay: CYP2C8 Inhibition, human liver microsomes, paclitaxel; settings: 0.1 μM-25 μM
MDR1-MDCK cells = assay: MDR1-MDCK Permeability and Identification of P-gp Substrate (Bi-directional); type: in vitro ADME, canine; settings: for efflux ratio: minus inhibitor (absence of cyclosporin A)
Procedure: MDR1-MDCK Permeability and Identification of P-gp Substrate (Bi-directional): Madin-Darby canine kidney (MDCK) cells are an epithelial cell line of canine kidney origin. These cells can be stably transfected to express active P-glycoprotein (MDR1-MDCK) and are ideal for studying drug efflux. Test compound was added to either the apical or basolateral side of a confluent monolayer of MDR1-MDCK cells and permeability was measured by monitoring the appearance of the test compound on the opposite side of the monolayer using LC-MS/MS. The efflux ratio (ER) was calculated from the ratio of B-A and A-B permeabilities. Experiments were performed in the absence and presence of a P-glycoprotein (P-gp) inhibitor (cyclosporin A (10 μM)) to determine whether the compound was subject to P-gp mediated efflux.
Experimental Procedure: MDR1-MDCK cells obtained from the NIH (Rockville, MD, USA) were used between passage numbers 6-30. Cells were seeded onto Millipore Multiscreen Transwell plates at 3.4×10^5 cells/cm^2. The cells were cultured in DMEM and media was changed on day 3. On day 4 the permeability study was performed. Cell culture and assay incubations were carried out at 37° C. in an atmosphere of 5% CO2 with a relative humidity of 95%. […]
The dosing solutions were prepared by diluting test compound with assay buffer to give a final test compound concentration of 10 μM (final DMSO concentration of 1% v/v). […] Test compound permeability was measured on two occasions, in the absence and in the presence of a P-gp inhibitor on both sides of the monolayer. […]
For assessment of A-B permeability. […] Test compound permeability was assessed in duplicate. […] Test and control compounds were quantified by LC-MS/MS cassette analysis using an 8-point calibration with appropriate dilution of the samples. […] The starting concentration (C0) was determined from the dosing solution and the experimental recovery calculated from C0 and both apical and basolateral compartment concentrations. […]

CYP3A4 [16] = target: T4, CYP3A4; settings: 0.1 μM-25 μM, human liver microsomes, substrate testosterone

T3 sequence (P10635 whole entry): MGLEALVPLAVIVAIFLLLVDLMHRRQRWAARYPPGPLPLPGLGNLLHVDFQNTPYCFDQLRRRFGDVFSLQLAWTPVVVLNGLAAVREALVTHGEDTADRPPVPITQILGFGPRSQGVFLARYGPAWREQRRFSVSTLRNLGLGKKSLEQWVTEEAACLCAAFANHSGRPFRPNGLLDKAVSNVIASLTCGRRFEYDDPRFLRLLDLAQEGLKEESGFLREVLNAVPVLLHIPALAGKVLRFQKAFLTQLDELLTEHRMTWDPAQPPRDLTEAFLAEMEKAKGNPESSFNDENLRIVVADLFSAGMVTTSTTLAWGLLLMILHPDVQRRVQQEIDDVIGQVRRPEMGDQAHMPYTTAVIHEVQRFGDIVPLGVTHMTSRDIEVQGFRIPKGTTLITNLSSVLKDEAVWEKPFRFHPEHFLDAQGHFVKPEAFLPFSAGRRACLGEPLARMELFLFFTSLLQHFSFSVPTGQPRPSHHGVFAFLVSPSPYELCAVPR
Chain of κ (KOP) (P34975 whole entry): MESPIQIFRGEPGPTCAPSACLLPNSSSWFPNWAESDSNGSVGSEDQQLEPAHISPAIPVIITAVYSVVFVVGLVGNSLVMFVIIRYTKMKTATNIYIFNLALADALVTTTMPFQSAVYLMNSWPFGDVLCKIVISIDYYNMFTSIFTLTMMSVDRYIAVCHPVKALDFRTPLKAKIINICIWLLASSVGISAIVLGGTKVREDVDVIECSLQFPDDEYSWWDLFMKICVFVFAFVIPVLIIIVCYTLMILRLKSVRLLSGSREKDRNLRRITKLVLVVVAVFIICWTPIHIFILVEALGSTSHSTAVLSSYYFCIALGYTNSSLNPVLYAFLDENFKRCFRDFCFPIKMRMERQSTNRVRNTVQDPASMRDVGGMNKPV
T1 sequence (P35372 whole entry): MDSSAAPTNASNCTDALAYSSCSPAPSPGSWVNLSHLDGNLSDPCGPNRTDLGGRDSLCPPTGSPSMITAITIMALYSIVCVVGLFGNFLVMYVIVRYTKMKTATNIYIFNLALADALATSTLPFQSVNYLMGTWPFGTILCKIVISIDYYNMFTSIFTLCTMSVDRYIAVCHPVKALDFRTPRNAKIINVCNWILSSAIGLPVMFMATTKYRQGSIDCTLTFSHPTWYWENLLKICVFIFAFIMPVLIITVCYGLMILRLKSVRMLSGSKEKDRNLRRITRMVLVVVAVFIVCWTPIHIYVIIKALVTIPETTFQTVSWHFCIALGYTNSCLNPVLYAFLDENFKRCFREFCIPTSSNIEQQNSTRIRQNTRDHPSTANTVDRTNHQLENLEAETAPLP
Chain of δ2 (DOP) (h) (P41143 whole entry): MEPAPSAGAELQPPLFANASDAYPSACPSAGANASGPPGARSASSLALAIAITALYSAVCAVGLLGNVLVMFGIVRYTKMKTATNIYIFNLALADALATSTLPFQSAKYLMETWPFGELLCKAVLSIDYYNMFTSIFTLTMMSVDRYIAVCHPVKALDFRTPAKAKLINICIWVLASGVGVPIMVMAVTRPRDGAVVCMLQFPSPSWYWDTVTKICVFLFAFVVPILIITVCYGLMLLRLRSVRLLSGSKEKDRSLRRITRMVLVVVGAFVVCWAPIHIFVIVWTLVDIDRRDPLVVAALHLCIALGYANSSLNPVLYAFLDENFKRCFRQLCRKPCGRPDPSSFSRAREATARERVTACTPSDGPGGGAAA
T4 sequence (P08684 whole entry): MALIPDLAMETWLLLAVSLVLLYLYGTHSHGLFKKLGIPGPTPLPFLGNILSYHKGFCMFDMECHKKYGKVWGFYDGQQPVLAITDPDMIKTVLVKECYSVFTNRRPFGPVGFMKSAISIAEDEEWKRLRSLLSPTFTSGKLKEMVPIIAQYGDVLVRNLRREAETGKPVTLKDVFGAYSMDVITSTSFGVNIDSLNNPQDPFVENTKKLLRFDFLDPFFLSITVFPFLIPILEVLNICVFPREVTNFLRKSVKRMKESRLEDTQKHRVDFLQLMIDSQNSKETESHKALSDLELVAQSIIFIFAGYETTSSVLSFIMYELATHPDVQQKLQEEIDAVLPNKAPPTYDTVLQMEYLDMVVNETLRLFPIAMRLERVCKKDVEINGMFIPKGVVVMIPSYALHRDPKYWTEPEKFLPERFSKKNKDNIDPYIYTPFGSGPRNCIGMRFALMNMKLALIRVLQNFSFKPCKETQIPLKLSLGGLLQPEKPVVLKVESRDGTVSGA
Chain of CYP2B6 (Homo sapiens, UniProt P20813) (P20813 whole entry): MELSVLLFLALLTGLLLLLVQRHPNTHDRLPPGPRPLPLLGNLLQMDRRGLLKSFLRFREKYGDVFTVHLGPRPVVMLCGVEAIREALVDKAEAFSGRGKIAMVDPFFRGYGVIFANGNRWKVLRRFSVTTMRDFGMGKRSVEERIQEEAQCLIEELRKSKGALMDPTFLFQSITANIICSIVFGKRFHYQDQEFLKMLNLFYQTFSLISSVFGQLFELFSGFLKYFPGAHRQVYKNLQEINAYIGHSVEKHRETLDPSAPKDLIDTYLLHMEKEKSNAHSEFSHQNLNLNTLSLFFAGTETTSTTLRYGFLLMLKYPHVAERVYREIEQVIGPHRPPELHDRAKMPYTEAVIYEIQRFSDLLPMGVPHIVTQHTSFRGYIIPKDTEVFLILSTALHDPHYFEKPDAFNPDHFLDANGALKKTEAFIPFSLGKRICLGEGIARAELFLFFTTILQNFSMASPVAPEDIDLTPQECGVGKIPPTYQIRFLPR
Chain of CYP2C9 (P11712 whole entry): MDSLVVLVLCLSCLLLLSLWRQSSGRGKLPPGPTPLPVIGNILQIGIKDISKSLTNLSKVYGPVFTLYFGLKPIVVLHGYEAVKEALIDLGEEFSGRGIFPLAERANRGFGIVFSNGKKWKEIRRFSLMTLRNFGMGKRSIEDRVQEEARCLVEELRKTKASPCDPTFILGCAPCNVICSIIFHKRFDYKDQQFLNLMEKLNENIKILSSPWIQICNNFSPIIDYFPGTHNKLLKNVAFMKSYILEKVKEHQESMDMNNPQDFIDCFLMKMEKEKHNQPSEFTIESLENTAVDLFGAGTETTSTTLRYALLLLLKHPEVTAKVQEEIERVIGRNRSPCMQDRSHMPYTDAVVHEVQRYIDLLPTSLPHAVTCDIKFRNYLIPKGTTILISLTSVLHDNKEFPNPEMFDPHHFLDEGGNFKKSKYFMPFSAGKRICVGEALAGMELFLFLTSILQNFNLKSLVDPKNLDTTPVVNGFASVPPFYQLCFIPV
Chain of hERG potassium channel (Q12809 whole entry): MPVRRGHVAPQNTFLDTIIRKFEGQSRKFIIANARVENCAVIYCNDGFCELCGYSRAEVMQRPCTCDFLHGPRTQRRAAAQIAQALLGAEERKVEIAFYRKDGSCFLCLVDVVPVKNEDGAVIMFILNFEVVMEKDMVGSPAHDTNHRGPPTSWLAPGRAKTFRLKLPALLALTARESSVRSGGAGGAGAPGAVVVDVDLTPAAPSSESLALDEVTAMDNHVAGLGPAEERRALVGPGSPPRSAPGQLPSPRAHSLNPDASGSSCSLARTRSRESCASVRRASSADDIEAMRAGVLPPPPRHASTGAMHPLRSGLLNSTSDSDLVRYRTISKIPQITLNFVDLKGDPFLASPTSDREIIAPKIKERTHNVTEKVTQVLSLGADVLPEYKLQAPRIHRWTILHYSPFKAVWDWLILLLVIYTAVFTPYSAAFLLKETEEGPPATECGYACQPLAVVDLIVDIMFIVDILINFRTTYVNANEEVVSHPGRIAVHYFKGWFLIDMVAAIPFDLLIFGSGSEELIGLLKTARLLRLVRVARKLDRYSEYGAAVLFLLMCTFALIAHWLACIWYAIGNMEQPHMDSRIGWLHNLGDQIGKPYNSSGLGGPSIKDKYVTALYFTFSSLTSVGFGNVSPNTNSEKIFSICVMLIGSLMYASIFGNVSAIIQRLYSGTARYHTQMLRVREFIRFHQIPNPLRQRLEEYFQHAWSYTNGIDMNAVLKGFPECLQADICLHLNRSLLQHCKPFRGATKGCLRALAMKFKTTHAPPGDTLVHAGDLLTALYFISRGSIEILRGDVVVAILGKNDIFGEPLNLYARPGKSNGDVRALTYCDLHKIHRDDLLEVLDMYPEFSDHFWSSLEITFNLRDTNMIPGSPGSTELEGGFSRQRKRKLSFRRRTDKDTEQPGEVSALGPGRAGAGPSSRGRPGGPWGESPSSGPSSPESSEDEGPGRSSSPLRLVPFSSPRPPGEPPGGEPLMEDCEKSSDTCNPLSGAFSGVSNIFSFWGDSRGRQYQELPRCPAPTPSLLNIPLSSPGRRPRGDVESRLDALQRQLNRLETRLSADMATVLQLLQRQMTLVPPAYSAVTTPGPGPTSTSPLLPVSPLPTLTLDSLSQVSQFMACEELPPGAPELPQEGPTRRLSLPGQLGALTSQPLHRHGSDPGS
Chain of CYP1A2 (Homo sapiens, UniProt P05177) (P05177 whole entry): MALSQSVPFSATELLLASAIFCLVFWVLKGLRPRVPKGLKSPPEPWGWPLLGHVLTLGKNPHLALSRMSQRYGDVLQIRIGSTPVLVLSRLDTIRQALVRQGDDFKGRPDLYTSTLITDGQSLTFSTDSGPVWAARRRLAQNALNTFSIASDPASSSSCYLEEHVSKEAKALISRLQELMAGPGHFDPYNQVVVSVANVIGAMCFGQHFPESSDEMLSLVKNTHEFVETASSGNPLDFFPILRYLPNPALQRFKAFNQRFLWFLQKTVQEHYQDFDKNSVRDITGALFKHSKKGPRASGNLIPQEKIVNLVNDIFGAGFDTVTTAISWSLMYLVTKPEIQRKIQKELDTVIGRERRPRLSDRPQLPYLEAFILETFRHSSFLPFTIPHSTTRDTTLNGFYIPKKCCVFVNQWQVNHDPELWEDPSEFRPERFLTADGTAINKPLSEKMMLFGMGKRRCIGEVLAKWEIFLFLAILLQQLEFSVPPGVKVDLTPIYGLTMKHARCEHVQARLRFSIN

CCC(=O)NC1CCN(CCc2cccs2)CC1 [N-(1-(2-(thiophen-2-yl)ethyl)piperidin-4-yl)propionamide]
nH (μ (MOP) (h) [1]): 0.6 | nH (δ2 (DOP) (h)): 0.9 | nH (α2B(h)): 1.2 | nH (κ (KOP)): 0.6

O=C(NC1CCN(CCc2ccccc2)CC1)c1ccccc1 [N-(1-phenethylpiperidin-4-yl)benzamide]
nH (δ2 (DOP) (h)): 0.7 | nH (μ (MOP) (h) [2]): 0.9 | nH (α2B(h)): 1.3 | nH (κ (KOP)): 0.6

O=C(NC1CCN(CCc2ccccc2)CC1)c1ccco1 [N-(1-phenethylpiperidin-4-yl)furan-2-carboxamide]
nH (δ2 (DOP) (h)): 1 | nH (μ (MOP) (h) [2]): 0.8 | nH (α2B(h)): 0.7 | nH (κ (KOP)): 1.1

O=C(CCCCCCCBr)NC1CCN(CCc2ccccc2)CC1 [8-bromo-N-(1-phenethylpiperidin-4-yl)octanamide]
nH (μ (MOP) (h) [1]): 0.4 | nH (α2B(h)): 0.8 | nH (κ (KOP)): 0.5

O=C(NC1CCN(CCc2ccccc2)CC1)c1ccoc1 [N-(1-phenethylpiperidin-4-yl)furan-3-carboxamide]
nH (δ2 (DOP) (h)): 1 | nH (μ (MOP) (h) [2]): 0.8 | nH (α2B(h)): 0.7 | nH (κ (KOP)): 1.1

CCC(=O)NC1CCN(CCc2ccccc2)CC1 [Compound 1, N-(1-phenethylpiperidin-4-yl)propionamide]
inhibition of L-DOPA induced dyskinesias ([3]; Rodent in vivo model): significant inhibition | effectiveness versus amantadine against L-dopa-induced dyskinesia ([3]; comparison with amantadine, model not specified (Rodent and Primate models named)): significantly more effective than amantadine | fraction unbound at 2 hr, 5 μM [4]: 0.249 | CYP2C9 inhibition (CYP2C9): No significant inhibition | CYP1A2 mRNA expression (CYP1A2 [5]): didn't cause a statistically significant change | CYP1A2 inhibition (CYP1A2 [6]): No significant inhibition | IC50 (CYP2D6; 0 minute incubation): > 25 µM | time-dependent CYP2D6 inhibition (CYP2D6; IC50 shift, 30 min pre-incubation ± NADPH): no evidence of time-dependent CYP2D6 inhibition | CYP2D6 inhibition (CYP2D6; 0 minute incubation): approximately 40% | CYP2D6 inhibition (CYP2D6; 30 minute plus NADPH incubation): approximately 40% | IC50 (hERG potassium channel): > 25 µM | CYP2B6 inhibition (CYP2B6 [7]): No significant inhibition | analgesic property (tail flick, 52° C. water) (CD-1 mice [8]): almost identical analgesic property compared to morphine alone | CYP2B6 mRNA expression (CYP2B6 [9]): slight, yet statistically significant decrease | toxicity (animal models): virtually no toxicity | permeability in the Caco-2 assay (Caco-2 cells; 10 μM, pH gradient 6.8/7.4, 120 min): highly permeable in both directions | efflux ratio (Caco-2 cells; pH gradient (pH 6.8/7.4)): 2.70 | inhibition of L-DOPA induced dyskinesias [10]: significant inhibition | binding to plasma proteins (plasma proteins): weak, or no noticeable binding | binding in mouse [11]: no binding at all could be detected | bioavailability [12]: highly bioavailable | time in chamber associated with morphine administration (CPP) (CD-1 mice [13]): significantly less time | CYP3A4 mRNA expression (CYP3A4 [14]): didn't cause a statistically significant change | CYP3A4 inhibition (midazolam) (CYP3A4 [15]): No significant inhibition | CYP2C8 inhibition (CYP2C8): No significant inhibition | permeability in the MDCK assay (MDR1-MDCK cells; 10 μM, pH 7.4, 60 min): highly permeable | efflux ratio (MDR1-MDCK cells): 1.48 | CYP3A4 inhibition (testosterone) (CYP3A4 [16]): No significant inhibition

CCC(=O)NC1CCN(CCC(=O)OC)CC1 [Methyl 3-(4-propionamidopiperidin-1-yl) propanoate]
nH (μ (MOP) (h) [2]): 0.5 | nH (α2B(h)): 1 | nH (κ (KOP)): 0.8

COc1cc2nc(N3CCN(C(=O)c4ccco4)CC3)nc(N)c2cc1OC [prazosin, reference compound]
efflux ratio (MDR1-MDCK cells): showing efflux
